Measured values published in patent US6319951A, “Use of 3-amino-4-hydroxybenzoic acid for the treatment of retroviral infections” (priority 1996, dated 2001).
In brackets after ≈: the same amount, converted by molar mass. Several values for one entry are separate records, joined by “and”; a condition that tells them apart may be missing. Equal entries are not always repeated. Entries after “also recorded” stand apart in the source; their conditions may differ. Where two headings read alike, the source gives them in different places.

What was measured:
Treponema pallidum = assay: antimicrobial activity, Treponema pallidum
water solubility = format: physicochemical
gonorrhoeae = assay: patient with gonorrhoea treated orally; format: in vivo, human; conditions: 1.6 g orally
Experimental: (§1) When a patient, with a frankly discharging gonorrhoeae was given 1.6 g of 3-amino-4-hydroxybenzoic acid orally, the discharge ceased in 12 hours but recurred in the 24th hour after treatment.

Herpes simplex = assay: antimicrobial activity, Herpes simplex
Escherchia coli = assay: antimicrobial activity, Escherichia coli
HIV [1] = assay: T-cell observations after HIV/AIDS treatment (Example 4); format: in vivo
Experimental: Symptomatic and asymptomatic seropositive individuals were treated with 3-amino-4-hydroxybenzoic acid (200 mg tds orally) for two weeks. CD4 :CD8 ratios were taken before and three months after treatment. […] Based on its inherent ability to inactivate HIV in vitro it is probable that 3-amino-4-hydroxybenzoic acid suppresses or inactivates the HIV in affected individuals.
The individuals were taken randomly as they became available (3 male and 4 female). Their T-cell counts were taken before treatment and three months after treatment. They were given 3-amino-4-hydroxybenzoic acid as 200 mg tds orally and followed on daily basis as they took 3-amino-4-hydroxybenzoic acid for two weeks. Thereafter they were followed weekly for the first month after finishing the course of medicine and then monthly.

[2] = Therapeutic Index determination
Description: The Therapeutic Index of 3-amino-4-hydroxybenzoic acid has been determined. International pharmacological principles demand that for human safety the Therapeutic Index of any drug to be used for human treatment should be greater than a unit, i.e. 1. If the Index is greater than 1, patients can take the drug without medical supervision and without experiencing adverse effects. There are, however, cases where therapeutic indices are less than 1 where the benefits outweigh the risks. This holds in the administration of anti-cancer drugs which mandate the availability of competent medical supervision. The reason behind this is that the drugs are supposed to destroy cancerous human cells. The difference between normal human cells and cancerous human cells is, as expected, minimal. It is expected that the difference between HIV and normal human cells would be colossal.
Therapeutic Index for 3-amino-4-hydroxybenzoic acid is: [formula]
The index for 3-amino-4-hydroxybenzoic acid is 40,000 which is good mathematical proof to back the safety of 3-amino-4-hydroxybenzoic acid as a drug to treat HIV.

human lymphocytes = assay: adverse effect on human lymphocytes in HIV culture; format: cell-based; conditions: at minimum concentration of 0.5 mg/l
safety study on rabbit = format: in vivo; conditions: intraperitoneal, 9 days, up to 133.3 mg/kg
HIV [3] = assay: HIV culture from patient blood (Example 6); format: in vivo
Description: (§2) Blood samples were taken for electron microscopy and HIV culture before and after treatment of two patients.

HIV [4] = assay: inactivation of HIV cultivated in human lymphocytes (minimum inhibitory concentration); format: cell-based
HIV [5] = assay: electron microscopy of patient blood (Example 6); format: in vivo; conditions: two patients, before treatment and 28 days after
Description: as §2

HIV [6] = format: in vivo
Experimental: Clinical observations on HIV/AIDS Patients Treated with 3-amino-4-hydroxybenzoic acid
Treatment was administered orally to each patient taking 200 mg of 3-amino-4-hydroxybenzoic acid tds for 14 days.

safety study on chicken = format: in vivo; conditions: oral, 9 days, up to 400.6 mg/kg
Description: A chicken of 500 g was used and 3-amino-4-hydroxybenzoic acid in water was forced down the esophagus using a plastic syringe over 9 days.

Neisseria gonorrhoeae = assay: antimicrobial activity, Neisseria gonorrhoeae
HIV [7] = assay: dipping HIV into aqueous 3-amino-4-hydroxybenzoic acid; conditions: aqueous solution, 30 seconds
Description: This duration is too short to be an inhibition of protein synthesis. It could only be an irreversible binding of the viral coat at gp120, gp160 or gp41 thereby making the virus fail to attach itself to the CD4 surface markers of target cells. […] It may also inactivate the lytic enzyme essential for HIV entry into the host cell as it does for hyaluronidase.

[8] = safety study on human volunteers; format: in vivo; conditions: 7 volunteers, oral; person 1: 200 mg stat and 200 mg tds x 2/52; person 3: 800 mg stat
Description: Safety Study on Human Volunteers
Dose & Frequency of 3- Total 3-amino-4-
amino-4-hydroxybenzoic hydroxybenzoic acid
Person acid Intake mg/kg
Each person took 3-amino-4-hydroxybenzoic acid orally.

hyaluronidase = conditions: acrosomal proteolytic enzyme of sperm; cited from earlier work
HIV [9] = assay: trial based on clinical and haematological findings (Example 5); format: in vivo
Description: In addition, trial based on clinical and haematological findings have shown the following observations.

[10] = absorption and excretion inferred from oral treatment of gonorrhoea patient; format: in vivo, human; conditions: 1.6 g
Experimental: as §1

Candida albicans = assay: antimicrobial activity, fungi, Candida albicans
HIV [11] = assay: antimicrobial activity, HIV
HIV [12] = assay: T-cell counts of patients JE001-JE0015, once daily dosing (Example 5); format: in vivo
Experimental: These were made on patients JE001-JE0015 who received 200 mg of 3-amino-4-hydroxybenzoic acid orally only once per day for two weeks and whose T-cell counts were analysed after only 6 weeks.
Continuous study of viral load by quantitative PCR when available will show the optimum dose and duration of administration of 3-amino-4-hydroxybenzoic acid.
An explanation is that the CD4 cells which carry HIV die after 3-amino-4-hydroxybenzoic acid kills the virus in them. Later as the precursor cells form other CD4 s without HIV to destroy them, the total CD4 count will be found even higher than before treatment.

Trichomona vapinalis = assay: antimicrobial activity, protozoan Trichomonas
HIV [13] = format: in vivo; remark: listed apart in the source
[14] = adverse effects in HIV/AIDS patients; format: in vivo, human
Description: Our experience in using 3-amino-4-hydroxybenzoic acid to treat HIV/AIDS has shown only one non-uniform adverse effect. […] In the case of 3-amino-4-hydroxybenzoic acid, this occasional side effect can be averted by feeding before administration, giving a flavouring agent before administration or preparing the medicament in capsule form. The nausea is temporary. The medicament is preferably taken for approximately 28 days.

HIV [15] = conditions: in presence of normal serum iron; cited from earlier work
HIV [16] = conditions: reported for AZT; cited from earlier work
[17] = 200 mg tds orally, two weeks, before vs three months after treatment
[18] = per patient, 200 mg tds orally, two weeks, three months after treatment
[19] = 200 mg tds oral, 14 days, patient three (1)
[20] = patient three (8), in 6 months of treatment

Nc1cc(C(=O)O)ccc1O [3-amino-4-hydroxybenzoic acid]
antimicrobial activity (Treponema pallidum): established | solubility in water (water solubility): not readily soluble in water | bacteriostatic effect (gonorrhoeae): bacteriostatic | time to cessation of gonorrhoeal discharge (gonorrhoeae): 12 h | antimicrobial activity (Herpes simplex): established | antimicrobial activity (Escherchia coli): established | immunological improvement (HIV [1]; 200 mg tds orally, two weeks): there is immunological improvement | mean increase in CD4 (HIV [1]; 200 mg tds orally, two weeks, 7 patients): 208 | CD4:CD8 ratio change (HIV [1]; [17]): rose | CD8 change (HIV [1]; [17]): decreased to varying levels in all of the individuals | Increase in CD4 after treatment (HIV [1]; 200 mg tds orally, two weeks, three months after treatment, per patient): 531 CD4/mm^3 and 72 CD4/mm^3 and 160 CD4/mm^3 and 40 CD4/mm^3 and 184 CD4/mm^3 and 102 CD4/mm^3 and 465 CD4/mm^3 | CD4/CD8 Ratio Before Treatment (HIV [1]; per patient, baseline): 0.845 and 0.00 and 0.7 and 0.3 and 0.29 and 0.9 | CD4 Count Before Treatment (HIV [1]; per patient, baseline): 561 CD4/mm3 and 50 CD4/mm3 and 650 CD4/mm3 and 460 CD4/mm3 and 300 CD4/mm3 and 1122 CD4/mm3 and 1014 CD4/mm3 | CD4/CD8 Ratio After Treatment (HIV [1]; [18]): 1.632 and 0.06 and 2.2 and 0.2 and 0.564 and 0.78 and 1.11 | CD4 Count After Treatment (HIV [1]; [18]): 1092 CD4/mm3 and 112 CD4/mm3 and 810 CD4/mm3 and 500 CD4/mm3 and 484 CD4/mm3 and 1326 CD4/mm3 and 1479 CD4/mm3 | Therapeutic Index [2]: 40,000 | selectivity ratio [2]: 40000 | adverse effect to the lymphocytes (human lymphocytes): without any adverse effect to the lymphocytes | adverse effects (safety study on rabbit): no adverse effects observed | eradication of HIV from patients' blood (HIV [3]; 3 mg/kg tds, 28 days): eradicates HIV from the patients blood | HIV culture growth (HIV [3]; two patients, before treatment and after 28 days of treatment): grew HIV but not after 28 days of treatment | MIC (HIV [4]; Human immunodeficiency virus 1, HIV cultivated in human lymphocytes, read-out: minimum inhibitory concentration / minimum concentration inactivating cultivated HIV): 0.5 µg/mL (≈ 3.27 µM) | inactivation of cultivated HIV (HIV [4]; in vitro, cultivated HIV): completely inactivate cultivated HIV | HIV particles by electron microscopy (HIV [5]): HIV particles before treatment but not 28 days after treatment | body weight after treatment (HIV [6]; [19]): 48 kg | haemoglobin after treatment (HIV [6]; [19]): 16% | lymphocytes (relative) after treatment (HIV [6]; [19]): 49% | body weight before treatment (HIV [6]; 200 mg tds oral, 14 days, patient three (1), baseline): 44 kg | clinical, haematological and weight gain assessment (HIV [6]; about 20 patients): found to improve | average weight gain (HIV [6]; average patient, within the first month): 5 kg | signs and symptoms (HIV [6]; patient five (3), after 2 weeks): the signs and symptoms were over | standing and walking unaided (HIV [6]; patient four (9)): By the third day they could stand and walk unaided | time until diarrhoea ceased (HIV [6]; patient four (9)): 24 h | vomiting and diarrhoea (HIV [6]; patient four (9)): over by the third day | health at follow-up (HIV [6]; patient four (9), 22.1.95 and May 19th 1995): in perfect health on 22.1.95 | serum iron (HIV [6]; patient four (9), all along the time of treatment): normal | wounds healed, signs and symptoms over (HIV [6]; patient four (9), by end of second week): wounds had healed and all their signs and symptoms were over | haemoglobin rise (HIV [6]; patient four (9), by the sixth month): 1 g % | weight gain (HIV [6]; patient four (9), in six months): 1 kg | haemoglobin after treatment (HIV [6]; patient four (9), sixth month): 11.9% | oral ulcers, genital wounds and lymph node enlargement (HIV [6]; patient one (2)): over by the second week of treatment | time until able to go to the toilet and bathroom unaided (HIV [6]; patient one (2)): ≤ 5 days | body weight before treatment (HIV [6]; patient one (2), baseline): 41 kg | weight gain (HIV [6]; patient one (2), in 3 weeks): 2.5 kg | rashes and pigmentation (HIV [6]; patient six (6), in 2 weeks of treatment): The rashes subsided and the pigmentation returned to normal skin colour | time until signs and symptoms were over (HIV [6]; patient three (1)): six | haemoglobin before treatment (HIV [6]; patient three (1), baseline): 11.69% | lymphocytes (relative) before treatment (HIV [6]; patient three (1), baseline): 39% | body weight before treatment (HIV [6]; patient three (8), baseline): 44 kg | haemoglobin before treatment (HIV [6]; patient three (8), baseline): 12.1% | functional recovery (house work, shopping) (HIV [6]; patient two (7), in 5 days of treatment): able to do their house work, go for salary from their place of work and even go to the market for shopping | adverse effects (safety study on chicken): no adverse effects observed | antimicrobial activity (Neisseria gonorrhoeae): established | infectivity of HIV after dipping (HIV [7]): renders the virus uninfective | persons experiencing nausea [8]: Only persons 1 and 3 experienced nausea without vomiting | inactivation of hyaluronidase (hyaluronidase): inactivates an achrosomal proteolytic enzyme hyaluronidase | time until anorexia subsides (HIV [9]; human, in vivo): ≤ 5 days | time until bed ridden patients can stand and do light work (HIV [9]; human, in vivo): ≤ 2 weeks | time until diarrhoea stops (HIV [9]; human, in vivo): 1-3 | time until fever and weakness subside (HIV [9]; human, in vivo): ≤ 1 week | time until haemoglobin normalizes (HIV [9]; human, in vivo): ≤ 1 month | time until poor vision normalizes (HIV [9]; human, in vivo): ≤ 1 week | time until rashes and hyper pigmentation of scars subside (HIV [9]; human, in vivo): ≤ 5 days | time until sleep normalizes in intensity and rhythm (HIV [9]; human, in vivo): ≤ 2 days | time until vomiting ceases (HIV [9]; human, in vivo): ≤ 2 days | time until oral and anogenital ulcers heal (HIV [9]; human, in vivo, po): ≤ 1 week | average weight gain (HIV [9]; within the first month of treatment): 5 kg | absorption from the gut / excretion [10]: sufficiently absorbed from the gut; also recorded: well absorbed and excreted | antimicrobial activity (Candida albicans): established | antimicrobial activity (HIV [11]): established | T-cell results (HIV [12]; 200 mg orally once per day, two weeks, analysed after 6 weeks, vs patient JC004 (200 mg tds)): The results were poor | CD4 count when counted earlier than three months (HIV [12]; earlier than three months): low figures even lower than before the start of treatment | antimicrobial activity (Trichomona vapinalis): established | hair (HIV [13]; patient four (9), by 6 weeks of treatment): their thin silk hair had reverted to the normal Afro type | body weight after treatment (HIV [13]; [20]): 53 kg | haemoglobin after treatment (HIV [13]; [20]): 14.9% | adverse effect ([14]; HIV/AIDS patients): nausea and vomiting in the very weak | side effects noted ([14]; chicken, rabbit, sheep and human volunteers): Only tolerable nausea and occasional vomiting

Cc1cn([C@H]2C[C@H](N=[N+]=[N-])[C@@H](CO)O2)c(=O)[nH]c1=O [AZT]
bone marrow depression and anaemia (HIV [15]): causes bone marrow depression and anaemia in presence of normal serum iron | reported equivalent increase in CD4 (HIV [16]): 81
